Results taken from patent US20240294508A1, “RIP1 MODULATORS INCLUDING AZETIDINE CYCLIC UREAS, PREPARATIONS, AND USES THEREOF” (SIRONAX LTD., priority 2021, published 2024).

test system: HT-29 cells; experiment: HT29 cells 0FBS assay in vitro: TNF-α/SMAC mimetic/zVAD-FMK induced necroptosis, CellTiter-Glo cell viability (RIP1 inhibitory activity); type: cell-based; conditions: Homo sapiens, FBS free medium, TNF-α (10 ng/ml) + SMAC mimetic (6 uM) + zVAD-FMK (10 μM), 20 hours, geometric mean EC50
Procedure, shortened: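 Luminescent ATP read-out (CellTiter-Glo) gave viability of HT-29 cells after 20 h at 37° C in serum-free medium containing compound and a necroptosis cocktail of 10 ng/ml TNF-α, 6 uM SMAC mimetic and 10 μM zVAD-FMK. EC50s are geometric means of 10-point curves run in duplicate.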

First: Cc1nn(-c2cc(OC3CN(C(=O)N4N=CC[C@@H]4c4cc(F)cc(Cl)c4)C3)c(F)cn2)c(C)c1C(N)=O [Compound 134, (R)-1-(4-((1-(5-(3-chloro-5-fluorophenyl)-4,5-dihydro-1H-pyrazole-1-carbonyl)azetidin-3-yl)oxy)-5-fluoropyridin-2-yl)-3,5-dimethyl-1H-pyrazole-4-carboxamide]
Second: Cc1nn(-c2cc(OC3CN(C(=O)N4N=CC[C@H]4c4cc(F)cc(Cl)c4)C3)c(F)cn2)c(C)c1C(=O)O [Compound 140, (S)-1-(4-((1-(5-(3-chloro-5-fluorophenyl)-4,5-dihydro-1H-pyrazole-1-carbonyl)azetidin-3-yl)oxy)-5-fluoropyridin-2-yl)-3,5-dimethyl-1H-pyrazole-4-carboxylic acid]
The EC50 of the first is higher: 100 to 1000 nM for the first, 0.1 to 100 nM for the second.

First: Cc1cc(F)cc([C@@H]2CC=NN2C(=O)N2CC(Oc3cc(-n4nc(C)c(C(N)=O)c4C)ncc3F)C2)c1 [Compound 135, (S)-1-(5-fluoro-4-((1-(5-(3-fluoro-5-methylphenyl)-4,5-dihydro-1H-pyrazole-1-carbonyl)azetidin-3-yl)oxy)pyridin-2-yl)-3,5-dimethyl-1H-pyrazole-4-carboxamide]
Second: Cc1cc(F)cc([C@H]2CC=NN2C(=O)N2CC(Oc3cc(-n4nc(C)c(C(N)=O)c4C)ncc3F)C2)c1 [Compound 136, (R)-1-(5-fluoro-4-((1-(5-(3-fluoro-5-methylphenyl)-4,5-dihydro-1H-pyrazole-1-carbonyl)azetidin-3-yl)oxy)pyridin-2-yl)-3,5-dimethyl-1H-pyrazole-4-carboxamide]
The EC50 of the first is lower: 0.1 to 100 nM for the first, 100 to 1000 nM for the second. The first is the more potent here.

Compared with `Cc1cnc([C@H]2CC=NN2C(=O)N2CC(Oc3cc(-c4c(C)cnn4C)ncc3F)C2)s1` [Compound 137, (R)-(3-((2-(1,4-dimethyl-1H-pyrazol-5-yl)-5-fluoropyridin-4-yl)oxy)azetidin-1-yl)(5-(5-methylthiazol-2-yl)-4,5-dihydro-1H-pyrazol-1-yl)methanone], `Cc1cnc([C@@H]2CC=NN2C(=O)N2CC(Oc3cc(-c4c(C)cnn4C)ncc3F)C2)s1` [Compound 138, (S)-(3-((2-(1,4-dimethyl-1H-pyrazol-5-yl)-5-fluoropyridin-4-yl)oxy)azetidin-1-yl)(5-(5-methylthiazol-2-yl)-4,5-dihydro-1H-pyrazol-1-yl)methanone] is lower in EC50: 1000 to 10000 nM for the first, 0.1 to 100 nM for the second.

`Cc1cnc(C2CC=NN2C(=O)N2CC(Oc3nc(-c4ccnn4C)c(F)cc3F)C2)s1` (stereo not drawn) [Compound 139, (3-((3,5-difluoro-6-(1-methyl-1H-pyrazol-5-yl)pyridin-2-yl)oxy)azetidin-1-yl)(5-(5-methylthiazol-2-yl)-4,5-dihydro-1H-pyrazol-1-yl)methanone] and `Cc1cnn(C)c1-c1nc(OC2CN(C(=O)N3N=CCC3c3cc(F)cc(F)c3)C2)c(F)cc1F` (stereo not drawn) [Compound 158, (5-(3,5-difluorophenyl)-4,5-dihydro-1H-pyrazol-1-yl)(3-((6-(1,4-dimethyl-1H-pyrazol-5-yl)-3,5-difluoropyridin-2-yl)oxy)azetidin-1-yl)methanone] fall in the same range of EC50: 0.1 to 100 nM for the first, 0.1 to 100 nM for the second.

First: Cc1nn(-c2cc(OC3CN(C(=O)N4N=CC[C@@H]4c4cc(F)cc(Cl)c4)C3)c(F)cn2)c(C)c1C(=O)O [Compound 141, (R)-1-(4-((1-(5-(3-chloro-5-fluorophenyl)-4,5-dihydro-1H-pyrazole-1-carbonyl)azetidin-3-yl)oxy)-5-fluoropyridin-2-yl)-3,5-dimethyl-1H-pyrazole-4-carboxylic acid]
Second: Cc1cc(F)cc([C@@H]2CC=NN2C(=O)N2CC(Oc3cc(-n4nc(C)c(C(=O)O)c4C)ncc3F)C2)c1 [Compound 142, (S)-1-(5-fluoro-4-((1-(5-(3-fluoro-5-methylphenyl)-4,5-dihydro-1H-pyrazole-1-carbonyl)azetidin-3-yl)oxy)pyridin-2-yl)-3,5-dimethyl-1H-pyrazole-4-carboxylic acid]
The EC50 of the first is higher: 100 to 1000 nM for the first, 0.1 to 100 nM for the second.

First: Cc1cc(F)cc([C@H]2CC=NN2C(=O)N2CC(Oc3cc(-n4nc(C)c(C(=O)O)c4C)ncc3F)C2)c1 [Compound 143, (R) 1-(5-fluoro-4-((1-(5-(3-fluoro-5-methylphenyl)-4,5-dihydro-1H-pyrazole-1-carbonyl)azetidin-3-yl)oxy)pyridin-2-yl)-3,5-dimethyl-1H-pyrazole-4-carboxylic acid]
Second: Cc1nn(-c2cc(OC3CN(C(=O)N4N=CC[C@H]4c4cc(F)cc(F)c4)C3)c(Cl)cn2)c(C)c1C(N)=O [Compound 160, (S)-1-(5-chloro-4-((1-(5-(3,5-difluorophenyl)-4,5-dihydro-1H-pyrazole-1-carbonyl)azetidin-3-yl)oxy)pyridin-2-yl)-3,5-dimethyl-1H-pyrazole-4-carboxamide]
The EC50 of the first is higher: 100 to 1000 nM for the first, 0.1 to 100 nM for the second. The second is the more potent here.

First: Cc1cnn(C)c1-c1cc(OC2CN(C(=O)N3N=CCC3c3nc(C)c(C)s3)C2)c(F)cn1 (stereo not drawn) [Compound 144, (3-((2-(1,4-dimethyl-1H-pyrazol-5-yl)-5-fluoropyridin-4-yl)oxy)azetidin-1-yl)(5-(4,5-dimethylthiazol-2-yl)-4,5-dihydro-1H-pyrazol-1-yl)methanone]
Second: Cc1cnn(C)c1-c1cc(OC2CN(C(=O)N3N=CCC3c3ccn(C)c3)C2)c(F)cn1 (stereo not drawn) [Compound 145, (3-((2-(1,4-dimethyl-1H-pyrazol-5-yl)-5-fluoropyridin-4-yl)oxy)azetidin-1-yl)(5-(1-methyl-1H-pyrrol-3-yl)-4,5-dihydro-1H-pyrazol-1-yl)methanone]
The EC50 of the first is higher: 100 to 1000 nM for the first, 0.1 to 100 nM for the second. The second is the more potent here.

`Cc1cnn(C)c1-c1csc(OC2CN(C(=O)N3N=CC[C@H]3c3cc(F)cc(F)c3)C2)n1` [Compound 146, (S)-(5-(3,5-difluorophenyl)-4,5-dihydro-1H-pyrazol-1-yl)(3-((4-(1,4-dimethyl-1H-pyrazol-5-yl)thiazol-2-yl)oxy)azetidin-1-yl)methanone] and `Cn1ncc(C#N)c1-c1csc(OC2CN(C(=O)N3N=CC[C@H]3c3cc(F)cc(F)c3)C2)n1` [Compound 150, (S)-5-(2-((1-(5-(3,5-difluorophenyl)-4,5-dihydro-1H-pyrazole-1-carbonyl)azetidin-3-yl)oxy)thiazol-4-yl)-1-methyl-1H-pyrazole-4-carbonitrile] fall in the same range of EC50: 0.1 to 100 nM for the first, 0.1 to 100 nM for the second.

`Cn1nccc1-c1csc(OC2CN(C(=O)N3N=CC[C@H]3c3cc(F)cc(F)c3)C2)n1` [Compound 147, (S)-(5-(3,5-difluorophenyl)-4,5-dihydro-1H-pyrazol-1-yl)(3-((4-(1-methyl-1H-pyrazol-5-yl)thiazol-2-yl)oxy)azetidin-1-yl)methanone] and `Cn1nccc1-c1cnc(OC2CN(C(=O)N3N=CC[C@H]3c3cc(F)cc(F)c3)C2)s1` [Compound 153, (S)-(5-(3,5-difluorophenyl)-4,5-dihydro-1H-pyrazol-1-yl)(3-((5-(1-methyl-1H-pyrazol-5-yl)thiazol-2-yl)oxy)azetidin-1-yl)methanone] fall in the same range of EC50: 0.1 to 100 nM for the first, 0.1 to 100 nM for the second.

First: Cc1cnn(C)c1-c1nc(OC2CN(C(=O)N3N=CC[C@H]3c3cc(F)cc(F)c3)C2)sc1Cl [Compound 149, (S)-(3-((5-chloro-4-(1,4-dimethyl-1H-pyrazol-5-yl)thiazol-2-yl)oxy)azetidin-1-yl)(5-(3,5-difluorophenyl)-4,5-dihydro-1H-pyrazol-1-yl)methanone]
Second: Cc1cnn(C)c1-c1nc(OC2CN(C(=O)N3N=CC[C@H]3c3cc(F)cc(F)c3)C2)sc1CO [Compound 157, (S)-(5-(3,5-difluorophenyl)-4,5-dihydro-11H-pyrazol-1-yl)(3-((4-(1,4-dimethyl-1H-pyrazol-5-yl)-5-(hydroxymethyl)thiazol-2-yl)oxy)azetidin-1-yl)methanone]
The EC50 of the first is lower: 0.1 to 100 nM for the first, 1000 to 10000 nM for the second.

`Cc1cnn(C)c1-c1nc(OC2CN(C(=O)N3N=CC[C@H]3c3cncc(F)c3)C2)sc1C#N` [Compound 152, (S)-4-(1,4-dimethyl-1H-pyrazol-5-yl)-2-((1-(5-(5-fluoropyridin-3-yl)-4,5-dihydro-1H-pyrazole-1-carbonyl)azetidin-3-yl)oxy)thiazole-5-carbonitrile] and `Cc1cnn(C)c1-c1cnc(OC2CN(C(=O)N3N=CC[C@H]3c3cc(F)cc(F)c3)C2)s1` [Compound 154, (S)-(5-(3,5-difluorophenyl)-4,5-dihydro-1H-pyrazol-1-yl)(3-((5-(1,4-dimethyl-1H-pyrazol-5-yl)thiazol-2-yl)oxy)azetidin-1-yl)methanone] fall in the same range of EC50: 0.1 to 100 nM for the first, 0.1 to 100 nM for the second.

`Cc1nn(-c2cc(OC3CN(C(=O)N4N=CC[C@H]4c4cc(F)cc(F)c4)C3)c(Cl)cn2)c(C)c1C#N` [Compound 159, (S)-1-(5-chloro-4-((1-(5-(3,5-difluorophenyl)-4,5-dihydro-1H-pyrazole-1-carbonyl)azetidin-3-yl)oxy)pyridin-2-yl)-3,5-dimethyl-1H-pyrazole-4-carbonitrile] and `COc1ncccc1-c1cc(OC2CN(C(=O)N3N=CC[C@H]3c3cc(F)cc(F)c3)C2)c(F)cn1` [Compound 164, (S)-(5-(3,5-difluorophenyl)-4,5-dihydro-1H-pyrazol-1-yl)(3-((5-fluoro-2′-methoxy-[2,3′-bipyridin]-4-yl)oxy)azetidin-1-yl)methanone] fall in the same range of EC50: 0.1 to 100 nM for the first, 0.1 to 100 nM for the second.

`Cc1cnn(C)c1-c1cc(OC2CN(C(=O)C3=NNCC3c3cc(F)cc(F)c3)C2)c(F)cn1` (stereo not drawn) [Compound 161, (4-(3,5-difluorophenyl)-4,5-dihydro-1H-pyrazol-3-yl)(3-((2-(1,4-dimethyl-1H-pyrazol-5-yl)-5-fluoropyridin-4-yl)oxy)azetidin-1-yl)methanone] and `Cc1nn(-c2cc(OC3CN(C(=O)C4=NNCC4c4cc(F)cc(F)c4)C3)c(F)cn2)c(C)c1C(N)=O` (stereo not drawn) [Compound 162, 1-(4-((1-(4-(3,5-difluorophenyl)-4,5-dihydro-1H-pyrazole-3-carbonyl)azetidin-3-yl)oxy)-5-fluoropyridin-2-yl)-3,5-dimethyl-1H-pyrazole-4-carb oxamide] fall in the same range of EC50: 0.1 to 100 nM for the first, 0.1 to 100 nM for the second.

`COc1ncccc1-c1ncc(F)c(OC2CN(C(=O)N3N=CC[C@H]3c3cc(F)cc(F)c3)C2)n1` [Compound 163, (S)-(5-(3,5-difluorophenyl)-4,5-dihydro-1H-pyrazol-1-yl)(3-((5-fluoro-2-(2-methoxypyridin-3-yl)pyrimidin-4-yl)oxy)azetidin-1-yl)methanone] was tested, and the EC50 was 0.1 to 100 nM.
